These compounds were tested against T1, cellular PARG (Homo sapiens, UniProt Q86W56) (assay: Nuclear PAR accumulation assay (immunofluorescence high-content imaging, MMS-treated HeLa cells)). Details: 1 hour compound then MMS 50 μg/mL for an additional hour.
T1 construct: endogenous in cells; host or cells: HeLa
T1 sequence (Q86W56 whole entry): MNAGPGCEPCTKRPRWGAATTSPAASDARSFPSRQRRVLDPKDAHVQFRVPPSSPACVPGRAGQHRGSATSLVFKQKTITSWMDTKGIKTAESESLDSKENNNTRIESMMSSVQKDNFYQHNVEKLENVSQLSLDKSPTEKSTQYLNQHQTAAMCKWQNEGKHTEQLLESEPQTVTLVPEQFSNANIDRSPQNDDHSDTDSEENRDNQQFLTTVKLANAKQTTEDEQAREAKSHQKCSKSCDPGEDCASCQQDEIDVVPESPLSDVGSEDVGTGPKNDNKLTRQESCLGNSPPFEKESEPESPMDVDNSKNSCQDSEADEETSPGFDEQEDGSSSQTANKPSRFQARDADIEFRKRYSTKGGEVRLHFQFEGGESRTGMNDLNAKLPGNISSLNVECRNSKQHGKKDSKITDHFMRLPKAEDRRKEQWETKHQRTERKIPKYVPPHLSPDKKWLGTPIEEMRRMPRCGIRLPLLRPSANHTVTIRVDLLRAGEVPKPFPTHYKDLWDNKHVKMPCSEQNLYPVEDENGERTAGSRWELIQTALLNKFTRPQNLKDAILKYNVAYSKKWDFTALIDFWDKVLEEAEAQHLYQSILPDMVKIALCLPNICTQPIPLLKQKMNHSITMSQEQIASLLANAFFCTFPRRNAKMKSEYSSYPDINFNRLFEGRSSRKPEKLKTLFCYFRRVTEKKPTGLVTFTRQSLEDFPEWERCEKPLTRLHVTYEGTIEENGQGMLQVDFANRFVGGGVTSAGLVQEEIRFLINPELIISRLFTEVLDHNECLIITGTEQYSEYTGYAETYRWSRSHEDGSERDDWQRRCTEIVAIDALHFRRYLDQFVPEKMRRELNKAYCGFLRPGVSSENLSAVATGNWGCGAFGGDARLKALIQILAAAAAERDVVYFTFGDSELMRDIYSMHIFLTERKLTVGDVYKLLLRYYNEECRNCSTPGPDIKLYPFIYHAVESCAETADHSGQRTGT
Type: cell-based
Outline: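 HeLa cells pretreated with compound for 1 h at 37° C, then given 50 μg/mL MMS for another hour. After methanol fixation, PAR was immunostained with DAPI nuclear counterstain; per-nucleus intensity and percent PAR-positive cells were imaged at 20× (≥1,000 cells/well). IC50 from four-parameter logistic fit.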
For `[2H]C([2H])(c1cnn(C)c1)N1C(=O)c2cc(S(=O)(=O)NC3(C)CC3)ccc2N2C1=NC[C@H]2C#Cc1cnn(C)c1` [Example 97, (R)-1-((1-methyl-1H-pyrazol-4-yl)ethynyl)-4-((1-methyl-1H-pyrazol-4-yl)methyl-d2)-N-(1-methylcyclopropyl)-5-oxo-1,2,4,5-tetrahydroimidazo[1,2-a]quinazoline-7-sulfonamide], the IC50 was < 100 nM.
`[2H]C([2H])(c1cnn(C)c1)N1C(=O)c2cc(S(=O)(=O)NC3(C)CC3)cc(Br)c2N2C1=NC[C@H]2C#C` [Example 98, (R)-9-bromo-1-ethynyl-4-((1-methyl-1H-pyrazol-4-yl)methyl-d2)-N-(1-methylcyclopropyl)-5-oxo-1,2,4,5-tetrahydroimidazo[1,2-a]quinazoline-7-sulfonamide] was tested, and the IC50 was < 100 nM.
With `Cn1cc(CN2C(=O)c3cc(S(=O)(=O)NC4(C)CC4)ccc3N3C2=NC[C@H]3C#CC(F)F)cn1` [Example 99, (R)-1-(3,3-difluoroprop-1-yn-1-yl)-4-((1-methyl-1H-pyrazol-4-yl)methyl)-N-(1-methylcyclopropyl)-5-oxo-1,2,4,5-tetrahydroimidazo[1,2-a]quinazoline-7-sulfonamide] the IC50 was < 100 nM.
With `CN(C)CC#C[C@@H]1CN=C2N(Cc3cnn(C)c3)C(=O)c3cc(S(=O)(=O)NC4(C)CC4)cc(Cl)c3N21` [Example 100, (R)-9-chloro-1-(3-(dimethylamino)prop-1-yn-1-yl)-4-((1-methyl-1H-pyrazol-4-yl)methyl)-N-(1-methylcyclopropyl)-5-oxo-1,2,4,5-tetrahydroimidazo[1,2-a]quinazoline-7-sulfonamide] the IC50 was < 100 nM.
For `[2H]C([2H])(c1cnn(C)c1)N1C(=O)c2cc(S(=O)(=O)NC3(C)CC3)ccc2N2C1=NC[C@H]2C#Cc1cn(C)nc1F` [Example 101, (R)-1-((3-fluoro-1-methyl-1H-pyrazol-4-yl)ethynyl)-4-((1-methyl-1H-pyrazol-4-yl)methyl-d2)-N-(1-methylcyclopropyl)-5-oxo-1,2,4,5-tetrahydroimidazo[1,2-a]quinazoline-7-sulfonamide], the IC50 was < 100 nM.
`Cn1cc(CN2C(=O)c3cc(S(=O)(=O)NC4(C)CC4)cc(Cl)c3N3C2=NC[C@H]3C#CCN)cn1` [Example 103, (R)-1-(3-aminoprop-1-yn-1-yl)-9-chloro-4-((1-methyl-1H-pyrazol-4-yl)methyl)-N-(1-methylcyclopropyl)-5-oxo-1,2,4,5-tetrahydroimidazo[1,2-a]quinazoline-7-sulfonamide] gave an IC50 of 100 to 1000 nM.
For `[2H]C([2H])(c1cnn(C)c1)N1C(=O)c2cc(S(=O)(=O)NC3(C)CC3)ccc2N2C1=NC[C@H]2C#Cc1cccc(N)n1` [Example 104, (R)-1-((6-aminopyridin-2-yl)ethynyl)-4-((1-methyl-1H-pyrazol-4-yl)methyl-d2)-N-(1-methylcyclopropyl)-5-oxo-1,2,4,5-tetrahydroimidazo[1,2-a]quinazoline-7-sulfonamide], the IC50 was < 100 nM.
Work on `[2H]C([2H])(c1cnn(C)c1)N1C(=O)c2cc(S(=O)(=O)NC3(C)CC3)ccc2N2C1=NC[C@H]2C#CC(C)(C)N` [Example 105, (R)-1-(3-amino-3-methylbut-1-yn-1-yl)-4-((1-methyl-1H-pyrazol-4-yl)methyl-d2)-N-(1-methylcyclopropyl)-5-oxo-1,2,4,5-tetrahydroimidazo[1,2-a]quinazoline-7-sulfonamide] yielded an IC50 of 100 to 1000 nM.
`[2H]C([2H])(c1cnn(C)c1)N1C(=O)c2cc(S(=O)(=O)NC3(C)CC3)ccc2N2C1=N[C@H]1CNC[C@H]12` [Example 106, (7aS,10aR)-6-((1-methyl-1H-pyrazol-4-yl)methyl-d2)-N-(1-methylcyclopropyl)-5-oxo-6,7a,8,9,10,10a-hexahydro-5H-pyrrolo[3′,4′:4,5]imidazo[1,2-a]quinazoline-3-sulfonamide] showed an IC50 of 100 to 1000 nM.
In the case of `Cc1cc([C@@H]2CN=C3N(Cc4cnn(C)c4)C(=O)c4cc(S(=O)(=O)NC5(C)CC5)ccc4N32)on1` [Example 107, (S)-4-((1-methyl-1H-pyrazol-4-yl)methyl)-N-(1-methylcyclopropyl)-1-(3-methylisoxazol-5-yl)-5-oxo-1,2,4,5-tetrahydroimidazo[1,2-a]quinazoline-7-sulfonamide], the IC50 is reported as < 100 nM.
`[2H]C([2H])(c1cnn(C)c1)N1C(=O)c2cc(S(=O)(=O)NC3(C)CC3)ccc2N2C1=NC[C@H]2COc1cnn(C)c1` [Example 108, (S)-4-((1-methyl-1H-pyrazol-4-yl)methyl-d2)-1-(((1-methyl-1H-pyrazol-4-yl)oxy)methyl)-N-(1-methylcyclopropyl)-5-oxo-1,2,4,5-tetrahydroimidazo[1,2-a]quinazoline-7-sulfonamide] was tested, and the IC50 was < 100 nM.
`[2H]C([2H])(c1cnn(C)c1)N1C(=O)c2cc(S(=O)(=O)NC3(C)CC3)ccc2N2C1=NCC21CC(CN(C)C)C1` (stereo not shown) [Example 109, 3-((dimethylamino)methyl)-4′-((1-methyl-1H-pyrazol-4-yl)methyl-d2)-N-(1-methylcyclopropyl)-5′-oxo-4′,5′-dihydro-2′H-spiro[cyclobutane-1,1′-imidazo[1,2-a]quinazoline]-7′-sulfonamide] was tested, and the IC50 was 100 to 1000 nM.
In the case of `[2H]C([2H])(c1cnn(C)c1)N1C(=O)c2cc(S(=O)(=O)NC3(C)CC3)ccc2N2C1=NC[C@H]2COc1ccccn1` [Example 110, (S)-4-((1-methyl-1H-pyrazol-4-yl)methyl-d2)-N-(1-methylcyclopropyl)-5-oxo-1-((pyridin-2-yloxy)methyl)-1,2,4,5-tetrahydroimidazo[1,2-a]quinazoline-7-sulfonamide], the IC50 is reported as < 100 nM.
With `[2H]C([2H])(c1cnn(C)c1)N1C(=O)c2cc(S(=O)(=O)NC3(C)CC3)cc(Cl)c2N2C1=NC[C@H]2C#C` [Example 111, (R)-9-chloro-1-ethynyl-4-((1-methyl-1H-pyrazol-4-yl)methyl-d2)-N-(1-methylcyclopropyl)-5-oxo-1,2,4,5-tetrahydroimidazo[1,2-a]quinazoline-7-sulfonamide] the IC50 was < 100 nM.
With `[2H]C([2H])(c1cnn(C)c1)N1C(=O)c2cc(S(=O)(=O)NC3(C)CC3)ccc2N2C1=NC[C@H]2C#CC1(N(C)C)CC1` [Example 112, (R)-1-((1-(dimethylamino)cyclopropyl)ethynyl)-4-((1-methyl-1H-pyrazol-4-yl)methyl-d2)-N-(1-methylcyclopropyl)-5-oxo-1,2,4,5-tetrahydroimidazo[1,2-a]quinazoline-7-sulfonamide] the IC50 was < 100 nM.
With `[2H]C([2H])(c1cnn(C)c1)N1C(=O)c2cc(S(=O)(=O)NC3(C)CC3)ccc2N2C1=NC[C@H]2CSC` [Example 113, (S)-4-((1-methyl-1H-pyrazol-4-yl)methyl-d2)-N-(1-methylcyclopropyl)-1-((methylthio)methyl)-5-oxo-1,2,4,5-tetrahydroimidazo[1,2-a]quinazoline-7-sulfonamide] the IC50 was < 100 nM.
Compound `[2H]C([2H])(c1cnn(C)c1)N1C(=O)c2cc(S(=O)(=O)NC3(C)CC3)ccc2N2C1=NC[C@H]2COCCN(C)C` [Example 114, (S)-1-((2-(dimethylamino)ethoxy)methyl) -4-((1-methyl-1H-pyrazol-4-yl)methyl-d2)-N-(1-methylcyclopropyl)-5-oxo-1,2,4,5-tetrahydroimidazo[1,2-a]quinazoline-7-sulfonamide] has an IC50 of 100 to 1000 nM.
With `Cn1cc(CN2C(=O)c3cc(S(=O)(=O)NC4(C)CC4)ccc3N3C2=NC[C@H]3COC2CC2)cn1` [Example 115, (S)-1-(cyclopropoxymethyl)-4-((1-methyl-1H-pyrazol-4-yl)methyl)-N-(1-methylcyclopropyl)-5-oxo-1,2,4,5-tetrahydroimidazo[1,2-a]quinazoline-7-sulfonamide] the IC50 was < 100 nM.
In the case of `Cn1cc(CN2C(=O)c3cc(S(=O)(=O)NC4(C)CC4)ccc3N3C2=NC[C@H]3C#Cc2ccncc2)cn1` [Example 116, (R)-4-((1-methyl-1H-pyrazol-4-yl)methyl)-N-(1-methylcyclopropyl)-5-oxo-1-(pyridin-4-ylethynyl)-1,2,4,5-tetrahydroimidazo[1,2-a]quinazoline-7-sulfonamide], the IC50 is reported as < 100 nM.
`Cn1cc(CN2C(=O)c3cc(S(=O)(=O)NC4(C)CC4)ccc3N3C2=NC[C@H]3C#Cc2cccnc2)cn1` [Example 117, (R)-4-((1-methyl-1H-pyrazol-4-yl)methyl)-N-(1-methylcyclopropyl)-5-oxo-1-(pyridin-3-ylethynyl)-1,2,4,5-tetrahydroimidazo[1,2-a]quinazoline-7-sulfonamide] was tested, and the IC50 was < 100 nM.
With `Cn1cc(CN2C(=O)c3cc(S(=O)(=O)NC4(C)CC4)ccc3N3C2=NC[C@H]3C2CCC2)cn1` [Example 118, (R)-1-cyclobutyl-4-((1-methyl-1H-pyrazol-4-yl)methyl)-N-(1-methylcyclopropyl)-5-oxo-1,2,4,5-tetrahydroimidazo[1,2-a]quinazoline-7-sulfonamide] the IC50 was < 100 nM.
`Cc1nc([C@@H]2CN=C3N(Cc4cnn(C)c4)C(=O)c4cc(S(=O)(=O)NC5(C)CC5)ccc4N32)co1` [Example 119, (S)-4-((1-methyl-1H-pyrazol-4-yl)methyl)-N-(1-methylcyclopropyl)-1-(2-methyloxazol-4-yl)-5-oxo-1,2,4,5-tetrahydroimidazo[1,2-a]quinazoline-7-sulfonamide] gave an IC50 of 100 to 1000 nM.
`CN1C(=O)c2cc(S(=O)(=O)NC3(C)CC3)ccc2N2C1=NC[C@H]2C#Cc1cn(C)nc1F` [Example 120, (R)-1-((3-fluoro-1-methyl-1H-pyrazol-4-yl)ethynyl)-4-methyl-N-(1-methylcyclopropyl)-5-oxo-1,2,4,5-tetrahydroimidazo[1,2-a]quinazoline-7-sulfonamide] was tested, and the IC50 was < 100 nM.
In the case of `Cc1ncc([C@@H]2CN=C3N(Cc4cnn(C)c4)C(=O)c4cc(S(=O)(=O)NC5(C)CC5)ccc4N32)s1` [Example 121, (S)-4-((1-methyl-1H-pyrazol-4-yl)methyl)-N-(1-methylcyclopropyl)-1-(2-methylthiazol-5-yl)-5-oxo-1,2,4,5-tetrahydroimidazo[1,2-a]quinazoline-7-sulfonamide], the IC50 is reported as < 100 nM.
`CCC[C@@H]1CN=C2N(Cc3cnn(C)c3)C(=O)c3cc(S(=O)(=O)NC4(C)CC4)ccc3N21` [Example 122, (R)-4-((1-methyl-1H-pyrazol-4-yl)methyl)-N-(1-methylcyclopropyl)-5-oxo-1-propyl-1,2,4,5-tetrahydroimidazo[1,2-a]quinazoline-7-sulfonamide] was tested, and the IC50 was < 100 nM.
